According to PubChem BioAssay (NCI):
“And” between values parts separate entries of the source, which are not always exact repeats. Identical values can stand only once.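 Following 48 hours of exposure in 96-well plates, responses at five concentrations were used to interpolate endpoints linearly. GI50 = concentration required for 50% inhibition of growth. TGI denotes the concentration required for complete inhibition of growth.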

Tests used:
Assay in all cases: NCI tumour cell line growth inhibition, 48 h
[1] = system: SR leukemia
[2] = system: SK-MEL-5 melanoma
[3] = system: NCI-H460 lung
[4] = system: MDA-MB-231 breast
[5] = system: ACHN renal
[6] = system: NCI-H226 lung
[7] = system: U251 CNS
[8] = system: UO-31 renal
[9] = system: NCI-H522 lung
[10] = system: BT-549 breast

SMILES	GI50 [1]	TGI [1]	GI50 [2]	TGI [2]	GI50 [3]	TGI [3]	GI50 [4]	TGI [4]	GI50 [5]	TGI [5]	GI50 [6]	TGI [6]	GI50 [7]	TGI [7]	GI50 [8]	TGI [8]	GI50 [9] [µM]	TGI [9]	GI50 [10]	TGI [10] [µM]
COc1cc2c(Nc3cc(Cl)c(OC)c(Cl)c3)c(C#N)cnc2cc1OCCCN1CCN(C)CC1	1.53 µM	4.41 µM	1.37 µM	2.71 µM	1.91 µM	8.47 µM	2.6 µM	5.2 µM	0.239 µM	3.58 µM	3.39 µM	18.2 µM	1.92 µM	4.05 µM	0.641 µM	5.47 µM	0.365	2.17 µM	3.83 µM	13.8
COc1ccc(-c2cnnn2-c2nonc2-n2cccc2)cc1	0.0451 µM	> 60.3 µM	0.324 µM	13.2 µM	0.344 µM	11.6 µM	1.21 µM	> 25 µM	1.05 µM	> 94 µM	0.705 µM	33.3 µM	0.344 µM	8.41 µM	0.298 µM	37.6 µM	0.136	0.487 µM	0.698 µM	34.6
COc1ccc(-c2ccc3c(N4CCOC[C@@H]4C)nc(N4CCOC[C@@H]4C)nc3n2)cc1CO	0.00529 µM and 0.027 µM	> 100 µM	0.00471 µM and 0.0264 µM		0.00417 µM and 0.0101 µM	> 100 µM	0.00595 µM and 0.0364 µM	13.8 µM	0.00495 µM and 0.0209 µM	> 100 µM	0.004 µM and 0.0139 µM	0.186 µM and 0.312 µM	0.00762 µM and 0.0341 µM	> 54.1 µM	0.003 µM and < 0.01 µM	0.0758 µM and 0.0806 µM	0.00484		0.00348 µM and 0.0162 µM	
COc1ccc(/C(C)=C(\c2ccc(OCCN3CCCCCC3)cc2)c2ccc(OC(=O)C3CCCCC3)cc2)cc1	0.291 µM	1.07 µM	1.08 µM	3 µM	0.592 µM	2.1 µM	1.05 µM	3 µM	1.73 µM	3.56 µM	2.02 µM	4.77 µM	1.01 µM	3.62 µM	0.453 µM	2.22 µM	2.12	5.36 µM	1.53 µM	3.36
OC(c1cc(-c2ccc(C(F)(F)F)cc2)nc(C(F)(F)F)c1)C1CCCCN1 (stereo unspecified)	0.362 µM	2.17 µM and 4.69 µM	1.63 µM and 1.86 µM	2.99 µM and 3.27 µM	1.81 µM	3.4 µM and 3.95 µM	1.72 µM and 2.42 µM	3.16 µM and 5.65 µM	1.56 µM and 2.37 µM	2.9 µM and 6.39 µM	1.73 µM and 2.56 µM	3.21 µM and 6.83 µM	1.53 µM	2.86 µM and 3.34 µM	1.44 µM and 4.96 µM	2.85 µM and 18.3 µM		3.19 µM and 3.27 µM	1.7 µM	3.08
O=C1CCCN1c1ccccc1I(=O)=O	95.6 µM	> 100 µM	> 100 µM	> 100 µM	> 100 µM	> 100 µM	> 100 µM	> 100 µM	> 100 µM	> 100 µM	> 100 µM	> 100 µM	> 100 µM	> 100 µM	> 100 µM	> 100 µM	> 100	> 100 µM	> 100 µM	> 100
CC(C)c1[nH]nc2c1N=C(c1ccccc1Cl)c1cc([N+](=O)[O-])ccc1N2	1.51 µM	10 µM	5.33 µM	16.2 µM	5.77 µM	15.9 µM	7.92 µM	> 25 µM	5.45 µM	20.4 µM	5.09 µM	16.1 µM	6.16 µM	> 25 µM	5.46 µM	> 18.5 µM	2.29	> 18.3 µM	6.66 µM	> 22.1
CC(C)(C)[Si](C)(C)OC1[C@@H](CNC(=O)NC(=O)CCl)O[C@@H](n2cnc3c(N)ncnc32)[C@H]1O[Si](C)(C)C(C)(C)C (stereo partly specified)	0.162 µM	0.562 µM	0.862 µM	1.6 µM	1.24 µM	3.21 µM	0.905 µM	1.71 µM	0.462 µM	1.11 µM	0.956 µM	2 µM	0.849 µM	1.58 µM	0.436 µM	1.13 µM	0.718	1.61 µM	0.869 µM	1.73
NNCCc1ccc(NC(=O)CCCc2ccc(C(=O)Nc3ccccc3N)cc2)cc1	3.24 µM	> 100 µM	6.19 µM	21.7 µM	13.3 µM	> 100 µM	17.4 µM	> 100 µM	17.7 µM	> 100 µM	16 µM	> 100 µM	12 µM	> 100 µM	4.8 µM	53.6 µM	8.13	> 100 µM	9.5 µM	> 100
